This passage reports IC50 and Caco-2 results from patent US12378243B2, “Quinoline compounds as inhibitors of KRAS” (Incyte Corporation, priority 2021, dated 2025).

The target in one series is KRAS G12D (Homo sapiens, UniProt P01116, G12D). The series can be described thus: GDP-GTP exchange assay, KRAS G12D. To be noted: bodipy-loaded KRAS G12D 2.5 nM, GppNHp 500 uM, SOS1 150 nM; 4 hours pre-incubation, 2 hours incubation; read-out: G12D_exchange. It counts as biochemical. The method in brief: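 Nucleotide exchange started with 1 mM GppNHp and 300 nM SOS1, then 2 h at ambient temperature. IC50 from four-parameter logistic fit with variable Hill slope.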
KRAS G12D, sequence (P01116 1-188 isoform P01116-2 G12D): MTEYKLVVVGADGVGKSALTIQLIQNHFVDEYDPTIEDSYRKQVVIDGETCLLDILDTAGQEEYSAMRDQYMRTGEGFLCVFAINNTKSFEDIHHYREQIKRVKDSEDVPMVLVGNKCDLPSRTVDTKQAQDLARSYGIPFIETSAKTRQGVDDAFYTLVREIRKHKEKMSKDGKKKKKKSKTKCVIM

The next series addresses KRAS G12V mutant (Homo sapiens, UniProt P01116, G12V). The series can be described thus: GDP-GTP exchange assay, KRAS G12V. To be noted: bodipy loaded KRAS G12V 2.5 nM; 3 hours incubation after adding GppNHp-SOS1 mixture; read-out: G12V_exchange. It counts as biochemical.
The test system of the next series is Caco-2 cells. The series can be described thus: Caco2 assay (permeability, A-B). To be noted: Papp absorptive direction (A-B), test compound 50 μM, 120 minutes at 37° C. It counts as in vitro ADME. The method, boiled down:
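Caco-2 monolayers grown 22-25 days on Transwells, used only at TEER ≥300 Ω·cm^2. Compound at 50 μM in HBSS added apically, receiver HBSS with 4% BSA; 120 min at 37 °C. LCMS quantification; Papp from receiver flux slope, membrane area and initial donor amount.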
(Caco-2 cells form a polarised layer with tight junctions and transporters.)

KRAS G12V mutant, sequence (P01116 1-188 isoform P01116-2 G12V): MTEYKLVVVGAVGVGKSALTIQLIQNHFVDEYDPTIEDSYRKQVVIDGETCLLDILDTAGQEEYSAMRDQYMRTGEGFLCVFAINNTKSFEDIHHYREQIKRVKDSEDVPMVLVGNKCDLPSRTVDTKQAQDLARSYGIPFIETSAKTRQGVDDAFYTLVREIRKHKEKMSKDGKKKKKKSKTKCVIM

As for `Cc1cc2c(nc(O[C@@H](C)[C@@H]3CCCN3C)c3cc(CN4CCOC4=O)n([C@H]4[C@H]5CN[C@@H]4C5)c32)c(F)c1-c1cc(O)cc2ccccc12` [Example 5, 3-((1-((1R,4R,5S)-2-Azabicyclo[2.1.1]hexan-5-yl)-6-fluoro-7-(3-hydroxynaphthalen-1-yl)-8-methyl-4-((S)-1-((S)-1-methylpyrrolidin-2-yl)ethoxy)-1H-pyrrolo[3,2-c]quinolin-2-yl)methyl)oxazolidin-2-one], the IC50 at KRAS G12D and at KRAS G12V mutant was less than 100 nM in each case. Also, in the series with Caco-2 cells (Table 3), the Caco-2 entry is listed as “+ (a Caco-2 value of 50.5)”.

With `CNC(=O)c1ccc(-c2nc3c(F)c(-c4cccc(Cl)c4Cl)c(CCC#N)cc3c3c2cc([C@H]2CCCN2C(=O)OC)n3[C@H]2[C@H]3CN[C@@H]2C3)cn1` [Example 33, Methyl (2R)-2-(1-((1R,4R,5S)-2-azabicyclo[2.1.1]hexan-5-yl)-8-(2-cyanoethyl)-7-(2,3-dichlorophenyl)-6-fluoro-4-(6-(methylcarbamoyl)pyridin-3-yl)-1H-pyrrolo[3,2-c]quinolin-2-yl)pyrrolidine-1-carboxylate], the IC50 on KRAS G12D and at KRAS G12V mutant was less than 100 nM in each case. Further, the Caco-2 result in the series on Caco-2 cells (Table 4) is “++ (a Caco-2 value of >0.5 but ≤1)”.

With `Cc1cc2c(nc(O[C@@H](C)[C@@H]3CCCN3C)c3cc(C)n([C@H]4[C@H]5CN[C@@H]4C5)c32)c(F)c1-c1cccc2cccc(C#N)c12` [Example 6, 8-(1-((1R,4R,5S)-2-Azabicyclo[2.1.1]hexan-5-yl)-6-fluoro-2,8-dimethyl-4-((S)-1-((S)-1-methylpyrrolidin-2-yl)ethoxy)-1H-pyrrolo[3,2-c]quinolin-7-yl)-1-naphthonitrile], the IC50 on KRAS G12D and at KRAS G12V mutant was less than 100 nM in each case. Moreover, the Caco-2 result in the series on Caco-2 cells (Table 3) was “++ (a Caco-2 value of >0.5 but ≤1)”.

Take `Cc1nc2c(F)c(-c3cccc(Cl)c3Cl)c(CCC#N)cc2c2c1cc([C@@H](C)NC(=O)c1ccncn1)n2[C@H]1[C@H]2CN[C@@H]1C2` [Example 68, N-((1R)-1-(1-((1R,4R,5S)-2-azabicyclo[2.1.1]hexan-5-yl)-8-(2-cyanoethyl)-7-(2,3-dichlorophenyl)-6-fluoro-4-methyl-1H-pyrrolo[3,2-c]quinolin-2-yl)ethyl)pyrimidine-4-carboxamide]: the IC50 at KRAS G12D and on KRAS G12V mutant was less than 100 nM throughout. Further, the Caco-2 result in the series on Caco-2 cells (Table 4) is listed as “+++ (a Caco-2 value of >1)”.

With `Cc1nc2c(F)c(-c3cccc(Cl)c3Cl)c(CCC#N)cc2c2c1cc(C1CCc3cccc(=O)n31)n2[C@H]1[C@H]2CN[C@@H]1C2` (single isomer, unassigned) [Example 31], the IC50 at KRAS G12D and at KRAS G12V mutant was less than 100 nM each time. Moreover, the Caco-2 result with Caco-2 cells (Table 4) is on record as “+ (a Caco-2 value of 50.5)”.
